Assays:
Format in all cases: cell-based
[1] = system: primary human tumors (esophageal, gastric); assay: TCA: Compound B-1 with paclitaxel, primary tumors
Experimental: (§1) In both studies, cell viability was assessed after 6 days in culture. Statistical analysis of the combination matrix was performed to assess whether synergy, additivity, or antagonism of the combination treatments were observed.
(§2) Materials: Primary patient samples (See Tables 16 and 17, below) were excised from mice when they reached 500 mg to 1000 mg in size and processed immediately, or after overnight shipment. Tumors were serially passaged by subcutaneous implantation of 50 mg to 150 mg fragments into the flanks of immunocompromised (nude) mice. Tumors were used within the first 5 or 7 passages.
(§3) Tumor Chemosensitivity Assay (TCA): Primary tumor samples were grown and serially passaged in immunocompromised mice. Tumors were mechanically dissociated into small fragments (1 mm to 2 mm) with scalpels in phosphate buffered saline (PBS or RPMI) and centrifuged at 200×g for 5 minutes at room temperature in 50 mL centrifuge tubes. Samples were resuspended in 10 mL of cell dissociation reagent and enzymatically digested with mechanical agitation for 1 to 3 hours at 37° C., 5% CO2 to a single cell suspension. Ten mL of complete RPMI-1640 media was added to the cell mixture and pipetted up and down 4 to 5 times. The mixture was then passed through a 70 μm or 100 μm mesh strainer to remove undigested tumor. The filtrate was then centrifuged 200×g for 5 minutes at room temperature and resuspended in 20 mL complete RPMI-1640. This cell suspension was slowly layered onto 20 mL of room temperature Histopaque and centrifuged at 400×g for 15 minutes at room temperature without a brake. The interface was transferred to a new 50 mL centrifuge tube and 15 mL of complete RPMI-1640 was added. This suspension was centrifuged at 200×g at room temperature, and the resulting pellet was resuspended in 10 mL of complete PC-1 media, except for pancreatic tumors in which case Pancreatic Medium was used. Cells were diluted in Trypan blue, and viable cells that excluded the dye were counted. Only the larger, tumor cells were included in the cell count. Cells were diluted in complete PC-1 or Pancreatic media, as appropriate for the cells, and were plated at 15,000 to 20,000 cells per well in 100-135 μL in ultra-low attachment U-bottom plates.
(§4) Compound Addition: For these studies, a 10 mM stock of the DNA-PK inhibitor (Compound B-1 or Compound B-2) was made in DMSO and used to add to cells from most tumors with HP D300 Digital Dispenser (Tecan US, Morrisville, NC, USA), or diluted into the appropriate media (PC-1 or pancreatic media) as a 5-10× stock and added to cells (OVX001 and ENX001, 005). PC-1, pancreatic media, and chemotherapeutics were also added so that final well volume was 150 μL. Doxorubicin was made as DMSO stock of 1 or 10 mM and added to cells for most tumors with HP D300 Digital Dispenser, or diluted into PC-1 as 5-10× stock and added to cells (OVX001 and ENX001, 005). Cisplatin (cis-diammine platinum(II), dichloride) was prepared fresh to 10 mM in warm (60° C.) distilled water and diluted in PC-1 as a 5-10× stock. […] Different starting concentrations, dose ranges, and number of doses were used for each experiment based on the response data available at the time.
(§5) For bleomycin experiments, combinations with Compound B-1 at all concentrations were run in triplicate. A 6×3 matrix was designed on one plate, consisting of a 2-point concentration range of 0.73 μM and 2.2 μM Compound B-1 plus no treatment control, in 3 columns each of 6 wells. Bleomycin (plus ‘no treatment’ control) was added to 9 wells in rows of this plate. Similar 6×3 matrices were set up for additional agents with different starting concentrations for compound dilutions. For cisplatin experiments the starting concentration was 30 μM which was diluted 1:3. […] For doxorubicin hydrochloride experiments the starting concentration was 5 μM doxorubicin which was diluted 1:3. For gemcitabine experiments the starting concentration was 5 μM gemcitabine which was diluted 1:3. […]

[2] = system: primary human tumors (NSCLC, esophageal, gastric); assay: TCA: Compound B-1 with cisplatin, primary tumors; set-up: Average Bliss score: scale not given here
Experimental: as §1, §2, §3, §4, §5

[3] = system: primary human tumors (NSCLC, pancreatic, gastric, esophageal); assay: TCA: Compound B-1 with bleomycin, primary tumors; set-up: Average Bliss score: scale not given here
Experimental: as §1, §2, §3, §4, §5

For `CNC(=O)c1ccnc2c([C@H](C)CNc3cc(-c4cnc(C)nc4)ncn3)cccc12` [Compound B-1], the “tumors that showed additivity” value ([1]; four of 5 tumors) was 80%, the “tumors that showed antagonism” value ([1]; one of 5 tumors) was 20% and the “Average Bliss score” value ([1]; tumor ESX005, Esophageal) was −3. For the same compound, the Synergy/Additivity/Antagonism ([1]; tumor ESX005, Esophageal) was “Additive (Values between 5 and −5 are considered additive)”, the “Average Bliss score” value ([1]; tumor ESX008, Esophageal) was −5 and the Synergy/Additivity/Antagonism ([1]; tumor ESX008, Esophageal) was “Antagonistic (less than −5 are considered antagonistic)”. For the same compound, the “Average Bliss score” value ([1]; tumor GAX001, Gastric) was −1, the Synergy/Additivity/Antagonism ([1]; tumor GAX001, Gastric) was “Additive (Values between 5 and −5 are considered additive)” and the “Average Bliss score” value ([1]; tumor GAX007, Gastric) was −4. For the same compound, the Synergy/Additivity/Antagonism ([1]; tumor GAX007, Gastric) was “Additive (Values between 5 and −5 are considered additive)”, the “Average Bliss score” value ([1]; tumor GAX027, Gastric) was 1 and the Synergy/Additivity/Antagonism ([1]; tumor GAX027, Gastric) was “Additive (Values between 5 and −5 are considered additive)”. For the same compound, the “tumors that showed additivity or synergy” value ([2]; nine of 10 tumors) was 90%, the “tumors that demonstrated antagonism” value ([2]; one of 10 tumors) was 10% and the “Average Bliss score” value ([2]; tumor ESX005, Esophageal) was 2. The Synergy/Additivity/Antagonism ([2]; tumor ESX005, Esophageal) was “Additive (Values between 5 and −5 are considered additive)”, the “Average Bliss score” value ([2]; tumor ESX008, Esophageal) was 1 and the Synergy/Additivity/Antagonism ([2]; tumor ESX008, Esophageal) was “Additive (Values between 5 and −5 are considered additive)”. The “Average Bliss score” value ([2]; tumor GAX001, Gastric) was 14, the Synergy/Additivity/Antagonism ([2]; tumor GAX001, Gastric) was “Strongly Synergistic (greater than 10 are considered strongly synergistic)” and the “Average Bliss score” value ([2]; tumor GAX007, Gastric) was 2. For the same compound, the Synergy/Additivity/Antagonism ([2]; tumor GAX007, Gastric) was “Additive (Values between 5 and −5 are considered additive)”, the “Average Bliss score” value ([2]; tumor GAX027, Gastric) was −3 and the Synergy/Additivity/Antagonism ([2]; tumor GAX027, Gastric) was “Additive (Values between 5 and −5 are considered additive)”. For the same compound, the “Average Bliss score” value ([2]; tumor OD33117, Lung (NSCLC)) was 6, the Synergy/Additivity/Antagonism ([2]; tumor OD33117, Lung (NSCLC)) was “Synergistic (greater than 5 are considered synergistic)” and the “Average Bliss score” value ([2]; tumor OD33966, Lung (NSCLC)) was −1. The Synergy/Additivity/Antagonism ([2]; tumor OD33966, Lung (NSCLC)) was “Additive (Values between 5 and −5 are considered additive)”, the “Average Bliss score” value ([2]; tumor OD36088, Lung (NSCLC)) was 6 and the Synergy/Additivity/Antagonism ([2]; tumor OD36088, Lung (NSCLC)) was “Synergistic (greater than 5 are considered synergistic)”. The “Average Bliss score” value ([2]; tumor TS110310, Lung (NSCLC)) was −3, the Synergy/Additivity/Antagonism ([2]; tumor TS110310, Lung (NSCLC)) was “Additive (Values between 5 and −5 are considered additive)” and the “Average Bliss score” value ([2]; tumor YAS111611, Lung (NSCLC)) was −6. The Synergy/Additivity/Antagonism ([2]; tumor YAS111611, Lung (NSCLC)) was “Antagonistic (less than −5 are considered antagonistic)”, the “number of tumors that showed synergy or additivity” value ([3]; of twenty tumors assessed) was 20 tumors and the “tumors that showed strong synergy” value ([3]; six of 20 tumors) was 30%. For the same compound, the “Average Bliss score” value ([3]; tumor ESX005, Esophageal) was 6, the Synergy/Additivity/Antagonism ([3]; tumor ESX005, Esophageal) was “Synergistic (greater than 5 are considered synergistic)” and the “Average Bliss score” value ([3]; tumor ESX008, Esophageal) was 7. The Synergy/Additivity/Antagonism ([3]; tumor ESX008, Esophageal) was “Synergistic (greater than 5 are considered synergistic)”, the “Average Bliss score” value ([3]; tumor GAX001, Gastric) was 14 and the Synergy/Additivity/Antagonism ([3]; tumor GAX001, Gastric) was “Strongly Synergistic (greater than 10 are considered strongly synergistic)”. For the same compound, the “Average Bliss score” value ([3]; tumor GAX007, Gastric) was 5, the Synergy/Additivity/Antagonism ([3]; tumor GAX007, Gastric) was “Synergistic (greater than 5 are considered synergistic)” and the “Average Bliss score” value ([3]; tumor GAX027, Gastric) was 11. For the same compound, the Synergy/Additivity/Antagonism ([3]; tumor GAX027, Gastric) was “Strongly Synergistic (greater than 10 are considered strongly synergistic)”, the “Average Bliss score” value ([3]; tumor OD25982, Lung (NSCLC)) was 4 and the Synergy/Additivity/Antagonism ([3]; tumor OD25982, Lung (NSCLC)) was “Additive (Values between 5 and −5 are considered additive)”. For the same compound, the “Average Bliss score” value ([3]; tumor OD26131, Lung (NSCLC)) was 9, the Synergy/Additivity/Antagonism ([3]; tumor OD26131, Lung (NSCLC)) was “Synergistic (greater than 5 are considered synergistic)” and the “Average Bliss score” value ([3]; tumor OD26749, Lung (NSCLC)) was 10. The Synergy/Additivity/Antagonism ([3]; tumor OD26749, Lung (NSCLC)) was “Strongly Synergistic (greater than 10 are considered strongly synergistic)”, the “Average Bliss score” value ([3]; tumor OD29498, Lung (NSCLC)) was 3 and the Synergy/Additivity/Antagonism ([3]; tumor OD29498, Lung (NSCLC)) was “Additive (Values between 5 and −5 are considered additive)”. The “Average Bliss score” value ([3]; tumor OD33117, Lung (NSCLC)) was 9, the Synergy/Additivity/Antagonism ([3]; tumor OD33117, Lung (NSCLC)) was “Synergistic (greater than 5 are considered synergistic)” and the “Average Bliss score” value ([3]; tumor OD33966, Lung (NSCLC)) was 3. The Synergy/Additivity/Antagonism ([3]; tumor OD33966, Lung (NSCLC)) was “Additive (Values between 5 and −5 are considered additive)”, the “Average Bliss score” value ([3]; tumor OD36088, Lung (NSCLC)) was 14 and the Synergy/Additivity/Antagonism ([3]; tumor OD36088, Lung (NSCLC)) was “Strongly Synergistic (greater than 10 are considered strongly synergistic)”. For the same compound, the “Average Bliss score” value ([3]; tumor P110323, Pancreatic) was 10, the Synergy/Additivity/Antagonism ([3]; tumor P110323, Pancreatic) was “Strongly Synergistic (greater than 10 are considered strongly synergistic)” and the “Average Bliss score” value ([3]; tumor P110325, Pancreatic) was 0. For the same compound, the Synergy/Additivity/Antagonism ([3]; tumor P110325, Pancreatic) was “Additive (Values between 5 and −5 are considered additive)”, the “Average Bliss score” value ([3]; tumor P110408, Pancreatic) was 7 and the Synergy/Additivity/Antagonism ([3]; tumor P110408, Pancreatic) was “Synergistic (greater than 5 are considered synergistic)”. For the same compound, the “Average Bliss score” value ([3]; tumor P110413, Pancreatic) was 6, the Synergy/Additivity/Antagonism ([3]; tumor P110413, Pancreatic) was “Synergistic (greater than 5 are considered synergistic)” and the “Average Bliss score” value ([3]; tumor P110504, Pancreatic) was 8. The Synergy/Additivity/Antagonism ([3]; tumor P110504, Pancreatic) was “Synergistic (greater than 5 are considered synergistic)”, the “Average Bliss score” value ([3]; tumor P110603, Pancreatic) was 14 and the Synergy/Additivity/Antagonism ([3]; tumor P110603, Pancreatic) was “Strongly Synergistic (greater than 10 are considered strongly synergistic)”. The “Average Bliss score” value ([3]; tumor TS110310, Lung (NSCLC)) was 2, the Synergy/Additivity/Antagonism ([3]; tumor TS110310, Lung (NSCLC)) was “Additive (Values between 5 and −5 are considered additive)” and the “Average Bliss score” value ([3]; tumor YAS111611, Lung (NSCLC)) was 6. For the same compound, the Synergy/Additivity/Antagonism ([3]; tumor YAS111611, Lung (NSCLC)) was “Synergistic (greater than 5 are considered synergistic)”.
